These results are taken from BindingDB's records for doi:10.1007/s002109900141 (Novartis Pharma, 1999).

As usually defined, the Ki is a dissociation constant, usually derived from enzyme kinetics or from competition with a known ligand. High values mean weaker binding, low ones tighter binding.

In assay [1] the target is Somatostatin receptor type 3 (Homo sapiens, UniProt P32745).
Assay [2] addresses Somatostatin receptor type 1 (Homo sapiens, UniProt P30872).
Assay [3] deals with Somatostatin receptor type 4 (Homo sapiens, UniProt P31391).
Sequence of Somatostatin receptor type 4 (P31391 whole entry): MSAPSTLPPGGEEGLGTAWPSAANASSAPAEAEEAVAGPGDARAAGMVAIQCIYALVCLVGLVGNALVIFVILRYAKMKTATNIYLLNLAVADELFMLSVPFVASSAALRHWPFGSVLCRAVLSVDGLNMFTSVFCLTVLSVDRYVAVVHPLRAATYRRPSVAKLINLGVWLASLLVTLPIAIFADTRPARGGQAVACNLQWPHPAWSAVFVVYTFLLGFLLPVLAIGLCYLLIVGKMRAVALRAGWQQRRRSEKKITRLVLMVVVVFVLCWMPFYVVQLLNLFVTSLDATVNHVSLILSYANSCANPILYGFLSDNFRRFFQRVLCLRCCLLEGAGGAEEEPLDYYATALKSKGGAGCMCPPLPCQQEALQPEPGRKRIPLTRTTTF
For assay [4], the target named is Somatostatin receptor type 2 (Homo sapiens, UniProt P30874).
Sequence of Somatostatin receptor type 2 (P30874 whole entry): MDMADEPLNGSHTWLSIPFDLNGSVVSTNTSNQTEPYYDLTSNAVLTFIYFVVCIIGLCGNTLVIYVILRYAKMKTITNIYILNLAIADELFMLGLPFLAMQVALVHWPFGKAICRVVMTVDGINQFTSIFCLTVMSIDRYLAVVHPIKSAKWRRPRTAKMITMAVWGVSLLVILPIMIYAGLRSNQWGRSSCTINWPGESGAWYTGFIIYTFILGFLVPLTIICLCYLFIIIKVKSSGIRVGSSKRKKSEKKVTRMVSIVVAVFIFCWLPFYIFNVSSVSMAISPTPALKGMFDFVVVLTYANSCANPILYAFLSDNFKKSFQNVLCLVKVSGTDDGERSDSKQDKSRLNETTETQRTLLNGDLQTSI
In assay [5] the target is Somatostatin receptor type 5 (Homo sapiens, UniProt P35346).
Sequence of Somatostatin receptor type 5 (P35346 whole entry): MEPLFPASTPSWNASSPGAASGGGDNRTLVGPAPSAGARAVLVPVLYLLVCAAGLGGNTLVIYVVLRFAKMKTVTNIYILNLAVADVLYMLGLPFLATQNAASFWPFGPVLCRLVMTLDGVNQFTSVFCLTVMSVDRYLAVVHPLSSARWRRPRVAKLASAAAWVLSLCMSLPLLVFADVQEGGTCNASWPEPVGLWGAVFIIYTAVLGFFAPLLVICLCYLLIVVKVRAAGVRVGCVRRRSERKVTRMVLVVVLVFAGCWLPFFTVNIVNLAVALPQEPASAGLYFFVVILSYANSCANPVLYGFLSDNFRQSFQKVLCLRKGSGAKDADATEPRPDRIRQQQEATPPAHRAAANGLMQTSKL

Structures are written as SMILES. “And” between values parts separate entries of the source, which are not always exact repeats. Equal values may be shown once. *1 amine or outer side, *2 acyl side, *3 side chain or, on linkers, in order; H or OH if unused. Where a SMILES comes first, the peptide text is derived from it. Bridges are numbered along the chain shown (N, C = ends). [ ]: non-standard residue; d: D form. The star is where a group is joined. d1Nal = N[C@H](Cc1cccc2ccccc12)C(=O)O; Asu = N[C@@H](CCCCCC(=O)O)C(=O)O; X1 = O=C(C(N[*:1])S[*:3])[*:2]; Ahp = NCCCCCCC(=O)O; Bn = c1ccc(C*)cc1; Mpa = O=C(O)CCS

Sequence of Somatostatin receptor type 1 (P30872 whole entry): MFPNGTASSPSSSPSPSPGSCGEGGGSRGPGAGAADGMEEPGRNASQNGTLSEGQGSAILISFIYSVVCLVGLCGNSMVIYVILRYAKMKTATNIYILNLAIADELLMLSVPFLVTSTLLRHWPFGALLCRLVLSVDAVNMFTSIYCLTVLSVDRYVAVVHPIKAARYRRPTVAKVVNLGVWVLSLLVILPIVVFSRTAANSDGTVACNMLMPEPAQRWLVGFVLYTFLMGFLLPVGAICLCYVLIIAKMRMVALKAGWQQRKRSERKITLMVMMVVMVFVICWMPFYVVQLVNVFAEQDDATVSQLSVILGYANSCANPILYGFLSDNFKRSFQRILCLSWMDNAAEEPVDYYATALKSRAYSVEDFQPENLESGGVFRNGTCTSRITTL
Sequence of Somatostatin receptor type 3 (P32745 whole entry): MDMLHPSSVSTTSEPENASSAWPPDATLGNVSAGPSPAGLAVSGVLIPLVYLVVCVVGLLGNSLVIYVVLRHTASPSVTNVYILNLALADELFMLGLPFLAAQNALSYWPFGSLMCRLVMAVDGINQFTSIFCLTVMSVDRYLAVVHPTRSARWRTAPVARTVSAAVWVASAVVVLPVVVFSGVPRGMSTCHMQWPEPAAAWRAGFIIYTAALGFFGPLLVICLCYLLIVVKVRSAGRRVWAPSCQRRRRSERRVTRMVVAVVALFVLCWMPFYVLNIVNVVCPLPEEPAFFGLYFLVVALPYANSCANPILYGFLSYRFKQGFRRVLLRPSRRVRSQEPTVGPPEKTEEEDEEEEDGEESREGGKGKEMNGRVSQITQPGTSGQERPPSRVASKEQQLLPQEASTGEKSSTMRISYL

For `C[C@@H](O)[C@@H]1NC(=O)[C@H](CCCCN)NC(=O)[C@@H](Cc2c[nH]c3ccccc23)NC(=O)[C@H](Cc2ccccc2)NC(=O)[C@@H]2CCCN2C(=O)[C@H](Cc2ccccc2)NC1=O` (cyclo(PF[dW]KTF)), the Ki came out at 107 nM in assay [1], 2190 nM in assay [2] and 2290 nM in assay [3].

With `CC(C)[C@@H]1NC(=O)[C@H](CCCCN)NC(=O)[C@@H](Cc2c[nH]c3ccccc23)NC(=O)[C@H](Cc2ccc(O)cc2)NC(=O)[C@@H](NC(=O)[C@H](N)Cc2ccc3ccccc3c2)CSSC[C@@H](C(=O)N[C@H](C(N)=O)[C@@H](C)O)NC1=O` [3-(2-Naphtyl)-D-Ala-L-Cys(1)-L-Tyr-D-Trp-L-Lys-L-Val-L-Cys(1)-L-Thr-NH2], the Ki in assay [1] came out at 11.7 nM; in assay [4], 0.37 nM; in assay [2], 178 nM.

In the case of `C[C@@H](O)[C@@H]1NC(=O)[C@H](CCCCN)NC(=O)[C@@H](Cc2c[nH]c3ccccc23)NC(=O)[C@H](Cc2ccc(O)cc2)NC(=O)[C@@H](NC(=O)[C@H](N)Cc2ccccc2)CSSC[C@@H](C(=O)N[C@H](CO)[C@@H](C)O)NC1=O` [10-(4-Amino-butyl)-19-(2-amino-3-phenyl-propionylamino)-16-(4-hydroxy-benzyl)-7-(1-hydroxy-ethyl)-13-(1H-indol-3-ylmethyl)-6,9,12,15,18-pentaoxo-1,2-dithia-5,8,11,14,17-pentaaza-cycloicosane-4-carboxylic acid (2-hydroxy-1-hydroxymethyl-propyl)-amide], the Ki was 2040 nM and 2690 nM and 1510 nM in assay [2]; 1290 nM and 513 nM and 676 nM in assay [3].

As to `CC(C)[C@H](NC(=O)[C@H](CCCCN)NC(=O)[C@@H](Cc1c[nH]c2ccccc12)NC(=O)[C@H](Cc1ccc(O)cc1)NC(=O)[C@H](Cc1ccccc1)NC(=O)[C@H](N)Cc1ccccc1)C(=O)N[C@@H](Cc1ccccc1)C(=O)N[C@H](Cc1cccc2ccccc12)C(N)=O` [BIM 23056] (H-[dF]FY[dW]KVF[d1Nal]-NH2), the Ki was determined as 63.1 nM in assay [1], 275 nM in assay [2] and 91.2 nM in assay [3].

Consider `CC(C)[C@@H]1NC(=O)[C@H](CCCCN)NC(=O)[C@@H](Cc2c[nH]c3ccccc23)NC(=O)[C@H](Cc2ccc(O)cc2)NC(=O)[C@@H](NC(=O)[C@H](N)Cc2ccccc2)CSSC[C@@H](C(=O)N[C@@H](Cc2c[nH]c3ccccc23)C(N)=O)NC1=O` [CAS_71306] (H-[dF]CY[dW]KVCW-NH2; disulfide 2-7), for which the Ki worked out at 15.1 nM in assay [1], 224 nM in assay [2] and 107 nM in assay [3].

Regarding `CC(C)[C@@H]1NC(=O)[C@H](CCCCN)NC(=O)[C@@H](Cc2c[nH]c3ccccc23)NC(=O)[C@H](Cc2ccc(O)cc2)NC(=O)CCSSC(C(=O)N[C@@H](Cc2ccccc2)C(N)=O)NC1=O` (stereo partly specified) [CAS_117580-24-2] ([Mpa]Y[dW]KV[X1]F-NH2; disulfide 1-6), the results for the Ki in assay [1], in assay [2] and in assay [3] were 22.9 nM, 6760 nM and 2950 nM, respectively.

On to `C[C@@H](O)[C@H](NC(=O)[C@H](Cc1ccccc1)NC(=O)[C@@H](NC(=O)[C@H](CCCCN)NC(=O)[C@@H](Cc1c[nH]c2ccccc12)NC(=O)[C@H](Cc1ccccc1)NC(=O)[C@H](Cc1ccccc1)NC(=O)[C@H](N)Cc1ccccc1)[C@@H](C)O)C(N)=O` [CAS_133073-82-2] (H-[dF]FF[dW]KTFT-NH2), for which the Ki in assay [1] turned out to be 0.19 nM; in assay [2], 6.76 nM; in assay [3], 7.41 nM.

As for `C[C@@H](O)[C@@H]1NC(=O)[C@H](Cc2ccc(O)cc2)NC(=O)[C@H]([C@@H](C)O)NC(=O)[C@H](CCCCN)NC(=O)[C@H](Cc2c[nH]c3ccccc23)NC(=O)[C@H](Cc2ccccc2)NC(=O)[C@H](Cc2ccccc2)NC(=O)[C@H](CC(N)=O)NC(=O)[C@H](CCCCN)NC(=O)CCCCC[C@@H](C(=O)O)NC(=O)[C@H](CO)NC1=O` [CGP-23996] (KNFFWKTYTS[Asu]-OH; lactam N-11), the Ki in assay [1] amounted to 0.7 nM; in assay [2] it was 3.54 nM; in assay [3] it was 2.39 nM.

For the compound `C[C@@H](O)[C@@H]1NC(=O)[C@H](CCCCN)NC(=O)[C@H](Cc2c[nH]c3ccccc23)NC(=O)[C@H](Cc2ccccc2)NC(=O)[C@H](Cc2ccccc2)NC(=O)[C@H](CC(N)=O)NC(=O)[C@H](CCCCN)NC(=O)[C@@H](NC(=O)[C@@H]2CCCN2)CSSC[C@@H](C(=O)N[C@@H](CCCCN)C(=O)O)NC(=O)[C@H](CO)NC(=O)[C@H](CO)NC(=O)[C@H](Cc2ccc(O)cc2)NC1=O` [CST14-Tyr10] (H-PCKNFFWKTYSSCK-OH; disulfide 2-13), the inhibition constant Ki in assay [1] was 0.95 nM and 1.99 nM and 1.25 nM; in assay [4] it was 1.17 nM and 1.69 nM and 1.23 nM and 1 nM; in assay [2], 4.78 nM and 2.75 nM and 0.91 nM; in assay [3], 5.01 nM and 3.63 nM and 6.76 nM.

For `C[C@@H](O)[C@@H]1NC(=O)[C@H](CCCCN)NC(=O)[C@H](Cc2c[nH]c3ccccc23)NC(=O)[C@H](Cc2ccccc2)NC(=O)[C@H](Cc2ccccc2)NC(=O)[C@H](CC(N)=O)NC(=O)[C@H](CCCCN)NC(=O)[C@@H](NC(=O)[C@@H]2CCCN2)CSSC[C@@H](C(=O)N[C@@H](CCCCN)C(=O)O)NC(=O)[C@H](CO)NC(=O)[C@H](CO)NC(=O)[C@H](Cc2ccccc2)NC1=O` [Cortistatin(1-14)] (H-PCKNFFWKTFSSCK-OH; disulfide 2-13), the values for the Ki in assay [1], in assay [2] and in assay [3] were 0.53 nM, 0.85 nM and 2.69 nM, respectively.

Regarding `CSCC[C@H](NC(=O)[C@H](CCCN=C(N)N)NC(=O)[C@@H](N)CC(=O)O)C(=O)N1CCC[C@H]1C(=O)N[C@H]1CSSC[C@@H](C(=O)N[C@@H](CCCCN)C(=O)O)NC(=O)[C@H](CO)NC(=O)[C@H](CO)NC(=O)[C@H](Cc2ccccc2)NC(=O)[C@H]([C@@H](C)O)NC(=O)[C@H](CCCCN)NC(=O)[C@H](Cc2c[nH]c3ccccc23)NC(=O)[C@H](Cc2ccccc2)NC(=O)[C@H](Cc2ccccc2)NC(=O)[C@H](CC(N)=O)NC(=O)[C@H](CCCN=C(N)N)NC1=O` [Cortistatin], the Ki is 0.13 nM in assay [1]; 0.46 nM and 1.41 nM in assay [4]; 0.33 nM and 0.24 nM in assay [2]; 0.54 nM and 0.57 nM in assay [3]; 0.06 nM and 0.28 nM and 0.42 nM and 0.14 nM in assay [5].

With `C[C@@H](O)[C@@H]1NC(=O)[C@H](CCCCN)NC(=O)[C@@H](Cc2c[nH]c3ccccc23)NC(=O)[C@H](Cc2c[nH]c3ccccc23)NC(=O)[C@H](Cc2ccccc2)NC(=O)CCCCCCNC(=O)[C@H](Cc2ccccc2)NC1=O` [L-362855] (cyclo([Ahp]FW[dW]KTF)), the Ki was 5.12 nM in assay [1], 832 nM in assay [2] and 83.2 nM in assay [3].

With `CC(C)C[C@H](NC(=O)[C@H](C)NC(=O)[C@@H]1CCCN1C(=O)[C@H](CC(N)=O)NC(=O)[C@H](CO)NC(=O)[C@H](CC(N)=O)NC(=O)[C@H](C)NC(=O)[C@@H](N)CO)C(=O)N[C@@H](C)C(=O)N1CCC[C@H]1C(=O)N[C@@H](CCCN=C(N)N)C(=O)N[C@@H](CCC(=O)O)C(=O)N[C@@H](CCCN=C(N)N)C(=O)N[C@@H](CCCCN)C(=O)N[C@@H](C)C(=O)NCC(=O)N[C@H]1CSSC[C@@H](C(=O)O)NC(=O)[C@H](CO)NC(=O)[C@H]([C@@H](C)O)NC(=O)[C@H](Cc2ccc(O)cc2)NC(=O)[C@H]([C@@H](C)O)NC(=O)[C@H](CCCCN)NC(=O)[C@@H](Cc2c[nH]c3ccccc23)NC(=O)[C@H](Cc2ccccc2)NC(=O)[C@H](Cc2ccccc2)NC(=O)[C@H](CC(N)=O)NC(=O)[C@H](CCCCN)NC1=O` [LTT-SRIF28] (H-SANSNPALAPRERKAGCKNFF[dW]KTYTSC-OH; disulfide 17-28), the Ki in assay [1] was 0.08 nM and 0.14 nM and 0.54 nM; in assay [2], 0.74 nM and 0.6 nM and 0.52 nM; in assay [3], 0.42 nM and 0.69 nM and 0.74 nM; in assay [5] it was 7.58 nM.

In the case of `C[C@@H](OCc1ccccc1)[C@@H]1NC(=O)[C@H](CCCCN)NC(=O)[C@@H](Cc2c[nH]c3ccccc23)NC(=O)[C@H](Cc2ccccc2)NC(=O)CCCCCCNC1=O` [c[Aha-Phe-D-Trp-Lys-Thr(Bzl)]] (cyclo([Ahp]F[dW]KT(Bn))), the inhibition constant Ki was determined as 132 nM in assay [1], 331 nM in assay [2] and 513 nM in assay [3].

Consider `CC(C)[C@@H]1NC(=O)[C@H](CCCCN)NC(=O)[C@@H](Cc2c[nH]c3ccccc23)NC(=O)[C@H](Cc2ccc(O)cc2)NC(=O)[C@H](C)N(C)C(=O)[C@H](Cc2ccccc2)NC1=O` [seglitide], for which the Ki in assay [1] amounted to 20.9 nM.
